From article PMC8284473, “Preliminary Characterization of NP339, a Novel Polyarginine Peptide with Broad Antifungal Activity” (Antimicrobial Agents and Chemotherapy, 2021)

Legend:
human PBMCs = assay: NP339 cytotoxicity, LIVE/DEAD staining; assay type: cell-based; details: human PBMCs 5 × 10^5 cells/well, 2 h, 37°C, RPMI 1640; concentrations hundreds of folds above antifungal; n = 2
Protocol: PBMCs were isolated from fresh human whole blood using Leucosep tubes (Greiner Bio-One), according to the manufacturer’s instructions. The cells were suspended in RPMI 1640 medium (5 × 10^6 cells/ml) and transferred to 96-well plate (5 × 10^5 cells/well). NP339 solutions were prepared in prewarmed RPMI 1640 medium and added to the cell suspension. The plates were incubated at 37°C under 5% CO2 for 2 h. Toxicity was determined using the Molecular Probes LIVE/DEAD Viability/Cytotoxicity kit (Fisher Scientific UK, Ltd.). As the kill control, 0.1% (vol/vol) Triton X-100 was used. Untreated cells were the live control.

[1] = system: A549 epithelial lung cell line; assay: NP339 cytotoxicity, LIVE/DEAD staining; assay type: cell-based, human; details: A549 monolayer, 3 h, 37°C, RPMI 1640; concentrations hundreds of folds above antifungal; n = 2
Protocol: Lung epithelial cells (A549 cells; ATCC [distributed by LGC Promochem, Teddington, United Kingdom]) were cultured in a 96-well plate in Ham’s F-12K medium (Fisher Scientific UK, Ltd.) supplemented with 10% (vol/vol) fetal bovine serum. The cells were incubated under 5% CO2 at 37°C until 90% confluent. NP339 solutions and 0.25% SDS (the kill control) were prepared in prewarmed RPMI 1640 medium. Once the cells reached 90% confluence, the culture medium was removed from the 96-well plate, taking care not to disturb the cells, and 100 μl of NP339 solution was added to the cell monolayer. The plates were incubated at 37°C under 5% CO2 for 3 h. Toxicity was determined using the Molecular Probes LIVE/DEAD Viability/Cytotoxicity kit, as per the manufacturer’s instructions. As the kill control, 0.25% (wt/vol) SDS was used. Untreated cells were the live control (cells incubated with the medium).

[2] = Tolerability in mouse models of infection; assay type: in vivo; details: at the therapeutic doses and duration of therapy used
Protocol: In all experiments, the animals were housed 4 or 5/cage in sterilized individual ventilated cages exposing the mice at all times to HEPA-filtered sterile air. Food and water were available ad libitum, and sterile aspen chip bedding was changed at least once weekly. The room temperature was 22 ± 1°C, with a relative humidity of 60% and maximum background noise of 56 dB. Mice were exposed to 12-h light/dark cycles. Before the experiments, the animals were randomly divided into groups. After the experiments, the animals were sacrificed by humane euthanasia by delivering 0.5 ml of 200 mg/ml pentobarbital solution via intraperitoneal injection. For quantification of fungal burden, samples were diluted appropriately and then quantitatively cultured on to SAB containing 0.05 mg/ml chloramphenicol and incubated at 37°C for 24 to 48 h before enumeration.
Male CD1 mice (n = 24 mice, 6 to 8 weeks of age, average weight of 23.5 g) were obtained from Charles River, Margate, United Kingdom. […] The mice were culled 29 h postinfection, and fungal kidney burdens were determined by plating as previously described.
Female BALB/c mice (n = 24 mice, 6 to 8 weeks of age, weight of 16 to 18 g) were obtained from Charles River, Margate, United Kingdom. […] At 3 days postinfection, fungal burdens in vaginal lavage samples were determined as described above. […]

human whole blood = human whole blood exposed to the peptide; data not shown

## N=C(N)NCCC[C@H](NC(=O)[C@H](CCCNC(=N)N)NC(=O)[C@H](CCCNC(=N)N)NC(=O)[C@H](CCCNC(=N)N)NC(=O)[C@H](CCCNC(=N)N)NC(=O)[C@H](CCCNC(=N)N)NC(=O)[C@H](CCCNC(=N)N)NC(=O)[C@H](CCCNC(=N)N)NC(=O)[C@H](CCCNC(=N)N)NC(=O)[C@H](CCCNC(=N)N)NC(=O)[C@H](CCCNC(=N)N)NC(=O)[C@H](CCCNC(=N)N)NC(=O)[C@@H](N)CCCNC(=N)N)C(=O)O [NP339]
Human PBMCs
  Cytotoxicity (live/dead cell ratio): not toxic
[1]
  Cytotoxicity (live/dead cell ratio): not toxic
[2]
  Tolerability: well tolerated
Human whole blood
  Nonspecific immune response (cytokine measurements): did not elicit a nonspecific immune response
